In ChEMBL document CHEMBL1909046, “DrugMatrix in vitro pharmacology data”:

What was measured:
[1] = target: T1, Progesterone receptor (Bos taurus, UniProt Q690N0); test: DRUGMATRIX: Progesterone radioligand binding (ligand: [3H] R-5020); format: tissue-based, Uterus; settings: Not Active = under 50% inhibition at 10 µM
T1 sequence (Q690N0 whole entry): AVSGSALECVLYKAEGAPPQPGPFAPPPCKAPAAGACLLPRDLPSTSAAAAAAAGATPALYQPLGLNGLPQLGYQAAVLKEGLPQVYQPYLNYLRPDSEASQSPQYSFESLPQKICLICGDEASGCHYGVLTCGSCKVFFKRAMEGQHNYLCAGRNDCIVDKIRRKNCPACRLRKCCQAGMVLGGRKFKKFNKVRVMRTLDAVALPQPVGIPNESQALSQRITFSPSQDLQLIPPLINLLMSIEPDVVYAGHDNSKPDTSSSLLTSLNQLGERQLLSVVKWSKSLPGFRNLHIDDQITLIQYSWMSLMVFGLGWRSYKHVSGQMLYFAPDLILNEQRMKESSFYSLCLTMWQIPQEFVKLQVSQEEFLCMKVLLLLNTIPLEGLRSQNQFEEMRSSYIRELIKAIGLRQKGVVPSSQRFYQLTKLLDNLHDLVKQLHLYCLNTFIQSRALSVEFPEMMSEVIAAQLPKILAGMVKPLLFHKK

[2] = target: T2, Alpha-1A adrenergic receptor (Rattus norvegicus, UniProt P43140); test: DRUGMATRIX: Alpha-1A adrenergic receptor radioligand binding (ligand: prazosin); format: cell membranes, Wistar, Submaxillary gland, Membrane; settings: Not Active = under 50% inhibition at 10 µM
T2 sequence (P43140 whole entry): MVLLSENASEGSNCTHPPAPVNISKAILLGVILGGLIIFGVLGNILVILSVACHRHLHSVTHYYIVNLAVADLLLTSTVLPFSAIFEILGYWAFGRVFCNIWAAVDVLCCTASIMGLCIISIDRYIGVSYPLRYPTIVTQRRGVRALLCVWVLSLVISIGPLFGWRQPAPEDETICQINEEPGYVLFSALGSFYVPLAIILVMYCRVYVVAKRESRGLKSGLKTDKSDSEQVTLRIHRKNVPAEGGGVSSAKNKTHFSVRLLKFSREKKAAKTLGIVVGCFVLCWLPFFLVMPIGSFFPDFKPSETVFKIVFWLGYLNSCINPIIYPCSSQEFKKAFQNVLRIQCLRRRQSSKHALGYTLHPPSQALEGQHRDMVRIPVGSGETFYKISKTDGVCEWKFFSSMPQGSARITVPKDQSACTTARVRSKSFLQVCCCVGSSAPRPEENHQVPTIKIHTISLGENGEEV

[3] = target: T3, Androgen receptor (Rattus norvegicus, UniProt P15207); also: in other assays of this panel Not Active means under 50% inhibition at 10 µM
T3 sequence (P15207 whole entry): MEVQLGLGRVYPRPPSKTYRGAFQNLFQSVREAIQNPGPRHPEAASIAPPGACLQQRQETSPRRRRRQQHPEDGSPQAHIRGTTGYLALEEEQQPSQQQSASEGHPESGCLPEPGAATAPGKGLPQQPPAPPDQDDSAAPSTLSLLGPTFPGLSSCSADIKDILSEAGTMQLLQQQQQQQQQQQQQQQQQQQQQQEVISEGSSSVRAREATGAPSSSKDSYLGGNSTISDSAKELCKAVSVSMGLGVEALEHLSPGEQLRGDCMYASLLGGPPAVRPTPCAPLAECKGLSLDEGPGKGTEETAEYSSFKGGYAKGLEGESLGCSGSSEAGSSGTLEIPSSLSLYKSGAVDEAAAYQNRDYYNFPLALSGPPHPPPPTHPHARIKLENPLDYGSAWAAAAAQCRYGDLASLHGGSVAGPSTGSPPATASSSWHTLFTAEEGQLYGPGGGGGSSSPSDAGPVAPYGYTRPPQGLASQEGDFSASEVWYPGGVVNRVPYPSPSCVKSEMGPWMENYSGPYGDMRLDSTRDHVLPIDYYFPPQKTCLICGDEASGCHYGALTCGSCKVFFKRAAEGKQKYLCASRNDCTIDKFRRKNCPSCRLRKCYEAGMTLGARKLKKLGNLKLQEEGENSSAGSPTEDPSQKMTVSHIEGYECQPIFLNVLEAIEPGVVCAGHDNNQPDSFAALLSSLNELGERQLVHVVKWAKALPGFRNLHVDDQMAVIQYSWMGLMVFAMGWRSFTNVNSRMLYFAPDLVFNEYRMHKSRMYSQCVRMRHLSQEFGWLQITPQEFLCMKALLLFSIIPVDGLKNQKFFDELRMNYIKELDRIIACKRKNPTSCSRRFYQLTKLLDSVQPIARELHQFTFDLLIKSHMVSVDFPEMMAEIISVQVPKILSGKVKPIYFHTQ

[4] = target: Voltage-gated inwardly rectifying potassium channel KCNH2 (Homo sapiens, UniProt Q12809); also: in other assays of this panel Not Active means under 50% inhibition at 10 µM
Voltage-gated inwardly rectifying potassium channel KCNH2, sequence (Q12809 whole entry): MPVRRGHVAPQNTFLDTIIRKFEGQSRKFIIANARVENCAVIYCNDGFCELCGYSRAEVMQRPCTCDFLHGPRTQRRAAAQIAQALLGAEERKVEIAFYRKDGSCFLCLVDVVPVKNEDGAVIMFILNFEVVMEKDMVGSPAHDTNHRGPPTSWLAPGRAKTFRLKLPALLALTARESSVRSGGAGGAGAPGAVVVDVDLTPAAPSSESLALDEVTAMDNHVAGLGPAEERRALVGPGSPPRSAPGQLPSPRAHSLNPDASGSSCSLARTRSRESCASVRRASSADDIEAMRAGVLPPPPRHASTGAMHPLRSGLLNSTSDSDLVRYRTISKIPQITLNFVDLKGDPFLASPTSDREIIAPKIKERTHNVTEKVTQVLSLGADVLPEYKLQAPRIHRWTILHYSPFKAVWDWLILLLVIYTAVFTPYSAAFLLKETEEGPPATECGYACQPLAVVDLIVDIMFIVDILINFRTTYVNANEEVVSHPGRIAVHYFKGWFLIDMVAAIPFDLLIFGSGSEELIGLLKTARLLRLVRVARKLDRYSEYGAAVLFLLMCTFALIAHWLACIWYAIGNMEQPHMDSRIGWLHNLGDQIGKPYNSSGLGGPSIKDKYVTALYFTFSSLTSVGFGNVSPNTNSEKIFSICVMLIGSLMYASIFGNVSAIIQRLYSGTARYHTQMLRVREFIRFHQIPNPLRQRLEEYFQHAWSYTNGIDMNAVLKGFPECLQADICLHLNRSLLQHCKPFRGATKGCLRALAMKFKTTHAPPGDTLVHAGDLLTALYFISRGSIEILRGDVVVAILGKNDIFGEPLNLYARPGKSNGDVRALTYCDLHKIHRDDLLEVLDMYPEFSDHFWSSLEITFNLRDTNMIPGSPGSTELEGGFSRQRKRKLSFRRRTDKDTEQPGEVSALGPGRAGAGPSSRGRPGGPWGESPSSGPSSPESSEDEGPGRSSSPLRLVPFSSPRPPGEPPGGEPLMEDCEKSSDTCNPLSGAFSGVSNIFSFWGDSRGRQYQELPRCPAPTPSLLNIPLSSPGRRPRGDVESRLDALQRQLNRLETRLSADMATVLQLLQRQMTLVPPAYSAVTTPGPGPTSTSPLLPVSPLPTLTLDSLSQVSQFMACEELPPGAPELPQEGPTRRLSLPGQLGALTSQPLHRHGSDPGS

[5] = target: Cytochrome P450 2C19 (Homo sapiens, UniProt P33261); also: in other assays of this panel Not Active means under 50% inhibition at 10 µM
Cytochrome P450 2C19, sequence (P33261 whole entry): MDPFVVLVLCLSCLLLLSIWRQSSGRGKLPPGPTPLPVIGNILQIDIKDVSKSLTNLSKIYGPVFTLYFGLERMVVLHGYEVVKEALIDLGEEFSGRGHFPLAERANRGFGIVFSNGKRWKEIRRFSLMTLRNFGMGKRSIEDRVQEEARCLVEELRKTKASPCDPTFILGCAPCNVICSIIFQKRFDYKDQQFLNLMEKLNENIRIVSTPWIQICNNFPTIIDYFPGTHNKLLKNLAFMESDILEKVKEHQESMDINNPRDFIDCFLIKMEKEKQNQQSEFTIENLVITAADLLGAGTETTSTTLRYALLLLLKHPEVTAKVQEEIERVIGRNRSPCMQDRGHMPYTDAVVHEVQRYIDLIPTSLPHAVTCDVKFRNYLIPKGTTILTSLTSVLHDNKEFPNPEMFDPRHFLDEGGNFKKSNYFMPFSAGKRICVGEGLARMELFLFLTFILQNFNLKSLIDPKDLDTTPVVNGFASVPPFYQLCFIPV

[6] = target: T4, Glucocorticoid receptor (Homo sapiens, UniProt P04150); test: biochemical; also: in other assays of this panel Not Active means under 50% inhibition at 10 µM
T4 sequence (P04150 whole entry): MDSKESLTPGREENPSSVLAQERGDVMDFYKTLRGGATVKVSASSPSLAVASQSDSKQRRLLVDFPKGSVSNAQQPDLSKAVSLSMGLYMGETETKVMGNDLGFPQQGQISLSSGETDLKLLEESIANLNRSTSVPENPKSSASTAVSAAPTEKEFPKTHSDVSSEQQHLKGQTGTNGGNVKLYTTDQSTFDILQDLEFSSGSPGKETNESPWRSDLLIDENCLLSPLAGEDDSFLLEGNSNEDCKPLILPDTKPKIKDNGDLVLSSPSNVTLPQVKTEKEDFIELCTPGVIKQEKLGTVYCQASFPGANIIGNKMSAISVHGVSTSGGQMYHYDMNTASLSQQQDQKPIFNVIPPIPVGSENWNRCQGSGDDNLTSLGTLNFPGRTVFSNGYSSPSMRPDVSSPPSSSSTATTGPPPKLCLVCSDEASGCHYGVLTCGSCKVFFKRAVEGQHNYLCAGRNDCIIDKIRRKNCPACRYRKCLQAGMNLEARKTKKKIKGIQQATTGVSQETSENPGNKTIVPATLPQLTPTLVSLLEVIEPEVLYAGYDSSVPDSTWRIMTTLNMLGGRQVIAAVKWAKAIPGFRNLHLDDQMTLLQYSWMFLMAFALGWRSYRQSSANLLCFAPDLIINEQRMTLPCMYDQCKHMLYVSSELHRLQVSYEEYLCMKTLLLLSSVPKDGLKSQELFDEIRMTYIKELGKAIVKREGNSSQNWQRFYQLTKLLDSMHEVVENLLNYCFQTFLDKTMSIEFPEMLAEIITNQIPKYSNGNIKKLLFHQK

[7] = target: Cytochrome P450 2C9 (Homo sapiens, UniProt P11712); also: in other assays of this panel Not Active means under 50% inhibition at 10 µM
Cytochrome P450 2C9, sequence (P11712 whole entry): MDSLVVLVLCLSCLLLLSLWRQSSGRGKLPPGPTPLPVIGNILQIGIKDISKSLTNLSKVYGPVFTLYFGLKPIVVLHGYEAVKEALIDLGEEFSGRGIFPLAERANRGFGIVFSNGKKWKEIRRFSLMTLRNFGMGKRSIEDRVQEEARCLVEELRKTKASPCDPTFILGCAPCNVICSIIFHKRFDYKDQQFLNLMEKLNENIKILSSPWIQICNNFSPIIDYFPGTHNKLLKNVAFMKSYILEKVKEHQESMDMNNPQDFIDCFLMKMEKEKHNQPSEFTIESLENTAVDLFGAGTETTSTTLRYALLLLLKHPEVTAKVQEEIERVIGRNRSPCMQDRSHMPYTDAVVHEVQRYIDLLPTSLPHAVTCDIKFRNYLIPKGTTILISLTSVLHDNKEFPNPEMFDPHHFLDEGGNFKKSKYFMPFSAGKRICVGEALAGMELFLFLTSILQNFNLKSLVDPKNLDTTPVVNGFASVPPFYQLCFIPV

| Molecule | IC50 [1] | IC50 [2] | also measured |
| --- | --- | --- | --- |
| CNS(=O)(=O)Cc1ccc2[nH]cc(CCN(C)C)c2c1 | Not Active | Not Active |  |
| CCCc1nn(C)c2c(=O)[nH]c(-c3cc(S(=O)(=O)N4CCN(C)CC4)ccc3OCC)nc12 | Not Active | Not Active |  |
| COc1ccc(/C=C/C(=O)Nc2ccccc2C(=O)O)cc1OC | Not Active | Not Active | IC50 [3]: Not Active |
| CCOC(N)=O | Not Active | Not Active |  |
| CC(=O)Nc1nnc(S(N)(=O)=O)s1 [ACETAZOLAMIDE] | Not Active | Not Active |  |
| O=c1[nH]c2ccccc2n1CCCN1CCC(n2c(=O)[nH]c3cc(Cl)ccc32)CC1 [DOMPERIDONE] | Not Active |  | IC50 ([2]; read-out: IC50): 285 nM; Ki ([2]; read-out: Ki): 116 nM |
| CC1=C(CC(=O)O)c2cc(F)ccc2/C1=C\c1ccc(S(C)(=O)=O)cc1 [EXISULIND] | Not Active | Not Active | IC50 [3]: Not Active |
| CC(C)OC(=O)C(C)(C)Oc1ccc(C(=O)c2ccc(Cl)cc2)cc1 [FENOFIBRATE] | Not Active | Not Active | IC50 [3]: Not Active |
| OCCN1CCN(CCCN2c3ccccc3Sc3ccc(C(F)(F)F)cc32)CC1 [FLUPHENAZINE] | Not Active |  | IC50 [4]: 5710 nM; Ki [4]: 4670 nM; IC50 ([2]; read-out: IC50): 24 nM; Ki ([2]; read-out: Ki): 9.58 nM |
| CN1C2CCCC1CC(NC(=O)c1nn(C)c3ccccc13)C2 (stereo not given) [GRANISETRON] | Not Active | Not Active |  |
| Nc1nc2c(c(=O)[nH]1)N(C=O)C(CNc1ccc(C(=O)N[C@@H](CCC(=O)O)C(=O)O)cc1)CN2 (stereo not given in full) [LEUCOVORIN] | Not Active | Not Active | IC50 [3]: Not Active |
| C[C@@H](O)[C@H]1C(=O)N2C(C(=O)O)=C(S[C@@H]3CN[C@H](C(=O)N(C)C)C3)[C@H](C)[C@H]12 [MEROPENEM] | Not Active | Not Active |  |
| CC[C@@H](CO)NC(=O)[C@@H]1C=C2c3cccc4c3c(cn4C)C[C@H]2N(C)C1 [METHYSERGIDE] | Not Active | Not Active |  |
| CCN(CC)CC#CCOC(=O)C(O)(c1ccccc1)C1CCCCC1 (stereo not given) [OXYBUTYNIN] | Not Active | Not Active |  |
| O=P(O)(O)C(O)(Cc1cccnc1)P(=O)(O)O [RISEDRONIC ACID] | Not Active | Not Active |  |
| CN(CCOc1ccc(CC2SC(=O)NC2=O)cc1)c1ccccn1 (stereo not given) [ROSIGLITAZONE] | Not Active | Not Active |  |
| C=C(C)[C@H]1Cc2c(ccc3c2O[C@@H]2COc4cc(OC)c(OC)cc4[C@@H]2C3=O)O1 [ROTENONE] | Not Active | Not Active | IC50 [3]: Not Active; IC50 [5]: 3650 nM |
| C#CCN(C)[C@H](C)Cc1ccccc1 [SELEGILINE] | Not Active | Not Active |  |

| Molecule | IC50 [1] | IC50 [2] | also measured |
| --- | --- | --- | --- |
| CN[C@@H]1[C@H](O)[C@H](NC)[C@H]2O[C@@]3(O)C(=O)C[C@@H](C)O[C@H]3O[C@@H]2[C@H]1O [SPECTINOMYCIN] | Not Active | Not Active | IC50 [3]: Not Active |
| Nc1ccc(S(=O)(=O)Nc2ncccn2)cc1 [SULFADIAZINE] | Not Active | Not Active |  |
| COc1ncnc(NS(=O)(=O)c2ccc(N)cc2)c1OC [SULFADOXINE] | Not Active | Not Active |  |
| Nc1ccc(S(=O)(=O)Nc2nccs2)cc1 [SULFATHIAZOLE] | Not Active | Not Active |  |
| C[C@]12CC[C@H]3[C@@H](CCC4=CC(=O)CC[C@@]43C)[C@@H]1CC[C@@H]2O [TESTOSTERONE] |  | Not Active | IC50 [6]: 3210 nM; Ki [6]: 1460 nM; IC50 ([1]; read-out: IC50): 1930 nM; Ki ([1]; read-out: Ki): 252 nM |
| CC(C)(C)NC[C@H](O)COc1nsnc1N1CCOCC1 [TIMOLOL] | Not Active | Not Active |  |
| CCS(=O)(=O)CCn1c([N+](=O)[O-])cnc1C [TINIDAZOLE] | Not Active | Not Active |  |
| C[C@@H]1C[C@H]2[C@@H]3CCC4=CC(=O)C=C[C@]4(C)C3=CC[C@]2(C)[C@H]1C(=O)CN1CCN(c2cc(N3CCCC3)nc(N3CCCC3)n2)CC1 [TIRILAZAD] | Not Active | Not Active | IC50 [3]: Not Active |
| NC[C@H]1O[C@H](O[C@H]2[C@H](O)[C@@H](O[C@H]3O[C@H](CO)[C@@H](O)[C@H](N)[C@H]3O)[C@H](N)C[C@@H]2N)[C@H](N)C[C@@H]1O [TOBRAMYCIN] | Not Active | Not Active |  |
| O=c1n(CCCN2CCN(c3cccc(Cl)c3)CC2)nc2ccccn12 [TRAZODONE] | Not Active |  | IC50 ([2]; read-out: IC50): 117 nM; Ki ([2]; read-out: Ki): 47 nM |
| O=C(O)C(Cl)(Cl)Cl [TRICHLOROACETIC ACID] | Not Active | Not Active |  |
| COc1ccc(CN2CCNCC2)c(OC)c1OC [TRIMETAZIDINE] | Not Active | Not Active |  |
| CC(=O)O[C@H]1C[C@@H]2CC[C@@H]3[C@H](CC[C@@]4(C)[C@H]3C[C@H]([N+]3(C)CCCCC3)[C@@H]4OC(C)=O)[C@@]2(C)C[C@@H]1N1CCCCC1.[Br-] [VECURONIUM BROMIDE] | Not Active | Not Active |  |
| COc1cc(C(=O)NS(=O)(=O)c2ccccc2C)ccc1Cc1cn(C)c2ccc(NC(=O)OC3CCCC3)cc12 [ZAFIRLUKAST] | Not Active | Not Active | IC50 [7]: 2260 nM |
| Cc1cn([C@H]2C[C@H](N=[N+]=[N-])[C@@H](CO)O2)c(=O)[nH]c1=O [ZIDOVUDINE] | Not Active | Not Active |  |
| STANNOUS FLUORIDE | Not Active | Not Active | IC50 [3]: Not Active; Ki [3]: Not Active; Ki [1]: Not Active; Ki [2]: Not Active |
| THIMEROSAL | Not Active | Not Active | IC50 [3]: Not Active; Ki [3]: Not Active; Ki [1]: Not Active; Ki [2]: Not Active |
